Assay [1] concerns different strains of C. tyrobutyricum. Description: MIC value determination against C. tyrobutyricum. The format is cell-based, Clostridium tyrobutyricum. On the procedure: The dairy Propionibacteria that are comprised in the starter culture according to the invention are preferably characterized by having a MIC value of 5 mg or higher, more preferably 10 mg or higher, even more preferably 25 mg or higher, even more preferably 50 mg or higher, most preferably even 100 mg or higher for lacticin 3147 per litre of growth medium. Herein, the term MIC has its common meaning of “minimal inhibitory concentration” and is the lowest concentration of an antimicrobial (in the present case lacticin 3147) that will inhibit the visible growth of a microorganism after overnight incubation. MIC values for lacticin 3147 or other bacteriocins are typically determined according to the following test: Propionibacterium strains are grown from an individual colony for 2-3 nights (SLA, 30° C., anaerobically) until turbid. 3% inoculum is subbed into fresh SLA medium and incubated for approx. 7 hours until OD600 0.5 is reached. […] Growth following incubation at 30° C. anaerobically for 19-24 hours is visually evaluated by inspecting turbidity from left to right. MIC values are determined according to the last well where no visible growth is observed (average of triplicate determinations). […]
MIC values were determined according to a protocol from UCC & Piper et al., J. Antimicrob. […]

Assay [2] has as its system Lb. delbrueckii ssp. lactis, C99. Description: MIC value determination of Lactobacilli. The conditions noted are these: results not shown. The format is cell-based, Lactobacillus delbrueckii. On the procedure: (§1) MIC values were determined according to a protocol from UCC & Piper et al., J. Antimicrob. Chemother. 2009, 61(3), 546. The protocol was adapted for 96 wells mictrotitre plate screening. Indicator strains Lb. delbrueckii ssp. lactis, C99 (commercially available ex CSK Food Enrichment CV) and Propionibacterium freudenreichii, C21 (commercially available ex CSK Food Enrichment CV) were used. Growth media were MRS for C99, sodium lactate agar (SLA) for C21.
(§2) MIC value determination of Lactobacilli against lacticin was performed according to the following procedure: Lactobacillus strains were grown, from an individual colony, overnight (MRS, 37 deg C., anaerobically) until turbid. 3% inoculum was subbed into fresh […] medium and incubated for approx. 7 hours until OD600 0.5 was reached. Of the resulting culture, 10^5 cfu/ml was inoculated into 96 wells microtitreplates containing fresh MRS medium comprising lacticin 3147 ranging in concentrations from 100 mg/L to 0.01 mg/L (high concentrations to the left, low concentrations to the right). Visually evaluated growth following incubation at 37° C. anaerobically for 19-24 hours, by inspecting turbidity from left to right (i.e. starting at the highest lacticin concentrations). MIC values were determined according to the last well where no visible growth is observed (average of triplicate determinations).

Assay [3] deals with Propionibacteria freudenreichii DPC 4555. Description: MIC value determination, 96 wells microtitre plate. In kind it is cell-based, Propionibacterium freudenreichii. The note with it: strain DPC 4555; SLA medium, 30° C. anaerobically 19-24 hours; average of triplicate. On the procedure:
(§3) The dairy Propionibacteria that are comprised in the starter culture according to the invention are preferably characterized by having a MIC value of 5 mg or higher, more preferably 10 mg or higher, even more preferably 25 mg or higher, even more preferably 50 mg or higher, most preferably even 100 mg or higher for lacticin 3147 per litre of growth medium. Herein, the term MIC has its common meaning of “minimal inhibitory concentration” and is the lowest concentration of an antimicrobial (in the present case lacticin 3147) that will inhibit the visible growth of a microorganism after overnight incubation. MIC values for lacticin 3147 or other bacteriocins are typically determined according to the following test: Propionibacterium strains are grown from an individual colony for 2-3 nights (SLA, 30° C., anaerobically) until turbid. 3% inoculum is subbed into fresh SLA medium and incubated for approx. 7 hours until OD600 0.5 is reached. Of the resulting culture, 10^5 cfu/ml is inoculated into 96 wells microtitreplates containing fresh SLA medium comprising lacticin 3147, or other bacteriocin, ranging in concentrations from 100 mg/L to 0.01 mg/L (high concentrations to the left, low concentrations to the right). Growth following incubation at 30° C. anaerobically for 19-24 hours is visually evaluated by inspecting turbidity from left to right. MIC values are determined according to the last well where no visible growth is observed (average of triplicate determinations). The above protocol under appropriate growth conditions can be used to obtain MIC values of other strains, e.g. of Lactoabacilli, Clostridia, etc., against lacticin 3147 or other bacteriocins such as nisin. […] At the same time MIC values against nisin were at least 20 times lower.
as §1
as §2, with “propionibacteria” for “Lactobacilli”, “Propionibacterium” for “Lactobacillus”, “for 2-3 nights (SLA, 30” for “overnight (MRS, 37”, “SLA” for “MRS”, “30°” for “37°”, “determinations). MIC values against nisin have be obtained similarly.” for “determinations).”

Assay [4] relates to Propionibacteria freudenreichii DPC 2241. Briefly: MIC value determination, 96 wells microtitre plate. In kind it is cell-based, Propionibacterium freudenreichii. The conditions noted are these: strain DPC 2241; SLA medium, 30° C. anaerobically 19-24 hours; average of triplicate. On the procedure: as §3, §1
as §2, with “propionibacteria” for “Lactobacilli”, “Propionibacterium” for “Lactobacillus”, “for 2-3 nights (SLA, 30” for “overnight (MRS, 37”, “SLA” for “MRS”, “30°” for “37°”, “determinations). MIC values against nisin have be obtained similarly.” for “determinations).”

Assay [5] deals with Propionibacteria freudenreichii CSK code 21. Description: MIC value determination, 96 wells microtitre plate. In kind it is cell-based, Propionibacterium freudenreichii. The note with it: strain CSK code 21; SLA medium, 30° C. anaerobically 19-24 hours; average of triplicate. On the procedure: as §3, §1
as §2, with “propionibacteria” for “Lactobacilli”, “Propionibacterium” for “Lactobacillus”, “for 2-3 nights (SLA, 30” for “overnight (MRS, 37”, “SLA” for “MRS”, “30°” for “37°”, “determinations). MIC values against nisin have be obtained similarly.” for “determinations).”

For assay [6], the system named is Propionibacteria freudenreichii CSK 1205. Briefly: MIC value determination, 96 wells microtitre plate. In kind it is cell-based, Propionibacterium freudenreichii. The conditions noted are these: strain CSK 1205; SLA medium, 30° C. anaerobically 19-24 hours; average of triplicate. The method, then:
as §3, §1
as §2, with “propionibacteria” for “Lactobacilli”, “Propionibacterium” for “Lactobacillus”, “for 2-3 nights (SLA, 30” for “overnight (MRS, 37”, “SLA” for “MRS”, “30°” for “37°”, “determinations). MIC values against nisin have be obtained similarly.” for “determinations).”

What is called MIC is the lowest concentration that inhibits growth of the organism. Higher therefore signals a need for much substance. In assay [1], lacticin 3147 gave an MIC values of 0.4 to 2.5 µg/mL. Further, the “lacticin 3147 required to inhibit relative to nisin” value in assay [2] is recorded as “Approximately 10 times”. For the same substance, the MIC in assay [3] is 8.3 µg/mL; in assay [4], more than 50 µg/mL; in assay [5], more than 50 µg/mL; in assay [6], more than 50 µg/mL.

In turn, nisin [reference compound] showed an MIC values in assay [1] of 0.03 to 0.1 µg/mL. Moreover, the minimum inhibitory concentration (MIC) is 0.039 µg/mL in assay [3], 2.5 µg/mL in assay [4], 1.25 µg/mL in assay [5] and 1.25 µg/mL in assay [6].

(Values after patent US10595542B2, “Method for producing Swiss-type cheese” (CSK Food Enrichment B.V., priority 2014, dated 2020).)
